From patent US20230295181A1, “INHIBITOR OF APOPTOSIS (IAP) PROTEIN ANTAGONISTS” (Sanford Burnham Prebys Medical Discovery Institute, priority 2020, published 2023)
Structures can show the parent of a compound that is named as a salt.

System: SKOV-3 cancer cell lines
Assay: SKOV-3 cell viability after treatment with 10 μM test compound
Assay type: cell-based
Conditions: for % viability after treatment with 10 micromolar of test compound (SKOV-3 cells): 10 micromolar test compound, hydrochloride; for viability at 10 µM: Homo sapiens, SK-OV-3, 10 micromolar test compound, SKOV-3 cells
Experimental: SKOV-3 cancer cell lines were treated with a test compound, either as a pure enantiomer or a mixture of stereoisomers, at a concentration of 10 μM. Cell viability was evaluated following treatment with a compound as disclosed in Table B. Viability of cancer cells following treatment is indicated according to the following legend:
A=0-25% viability B=26-50% viability C=>50% viability

Compound | % viability after treatment with 10 micromolar of test compound (SKOV-3 cells) | viability at 10 µM [%]
CCC1(CC)C[C@@H]2SCC[C@H](NC(=O)[C@H](C)NC)C(=O)N2[C@@H]1C(=O)N[C@@H]1CCCc2ccccc21 [Compound 37, (4S,9aS)-8,8-diethyl-4-((S)-2-(methylamino)propanamido)-5-oxo-N—((R)-1,2,3,4-tetrahydronaphthalen-1-yl)octahydropyrrolo[2,1-b][1,3]thiazepine-7-carboxamide hydrochloride] | B (B=26-50% viability) | –
CCC1(CC)C[C@@H]2SCC[C@H](NC(=O)[C@H](C)NC)C(=O)N2[C@@H]1C(=O)N[C@@H]1CCCc2ccccc21 [Compound 39, (4S,9aS)-8,8-diethyl-4-((S)-2-(methylamino)propanamido)-5-oxo-N—((R)-1,2,3,4-tetrahydronaphthalen-1-yl)octahydropyrrolo[2,1-b][1,3]thiazepine-7-carboxamide hydrochloride] | B (B=26-50% viability) | –
CN[C@@H](C)C(=O)N[C@H]1CCS[C@H]2CC(C(C)C)(C(C)C)[C@@H](C(=O)N[C@@H]3CCCc4ccccc43)N2C1=O [Compound 40, 4S,9aS)-8,8-diisopropyl-4-((S)-2-(methylamino)propanamido)-5-oxo-N—((R)-1,2,3,4-tetrahydronaphthalen-1-yl)octahydropyrrolo[2,1-b][1,3]thiazepine-7-carboxamide hydrochloride] | C (C=>50% viability) | –
CN[C@@H](C)C(=O)N[C@H]1CCS[C@H]2CC(C(C)C)(C(C)C)[C@@H](C(=O)N[C@@H]3CCCc4ccccc43)N2C1=O [Compound 42, 4S,9aS)-8,8-diisopropyl-4-((S)-2-(methylamino)propanamido)-5-oxo-N—((R)-1,2,3,4-tetrahydronaphthalen-1-yl)octahydropyrrolo[2,1-b][1,3]thiazepine-7-carboxamide hydrochloride] | C (C=>50% viability) | –
CN[C@@H](C)C(=O)N[C@H]1CCS[C@H]2CC(C(C)C)(C(C)C)[C@@H](C(=O)N[C@@H]3CCCc4ccccc43)N2C1=O [Compound 43, 4S,9aS)-8,8-diisopropyl-4-((S)-2-(methylamino)propanamido)-5-oxo-N—((R)-1,2,3,4-tetrahydronaphthalen-1-yl)octahydropyrrolo[2,1-b][1,3]thiazepine-7-carboxamide hydrochloride] | C (C=>50% viability) | –
CN[C@@H](C)C(=O)N[C@H]1CCS[C@H]2CC(CCc3ccccc3)[C@@H](C(=O)N[C@@H]3CCCc4ccccc43)N2C1=O (stereo partly drawn) [Compound 46, (4S,9aS)-4-((S)-2-(methylamino)propanamido)-5-oxo-8,8-phenethyl-N—((R)-1,2,3,4-tetrahydronaphthalen-1-yl)octahydropyrrolo[2,1-b][1,3]thiazepine-7-carboxamide hydrochloride] | B (B=26-50% viability) | –
C=CCC1(CC=C)C[C@@H]2OCC[C@H](NC(=O)[C@H](C)NC)C(=O)N2[C@@H]1C(=O)NC(c1ccccc1)c1ccccc1 [Compound 48, (4S)-8,8-diallyl-N-benzhydryl-4-((S)-2-(methylamino)propanamido)-5-oxooctahydropyrrolo[2,1-b][1,3]oxazepine-7-carboxamide hydrochloride] | C (C=>50% viability) | –
C=CCC1(CC=C)C[C@@H]2OCC[C@H](NC(=O)[C@H](C)NC)C(=O)N2[C@@H]1C(=O)NC(c1ccccc1)c1ccccc1 [Compound 49, (4S)-8,8-diallyl-N-benzhydryl-4-((S)-2-(methylamino)propanamido)-5-oxooctahydropyrrolo[2,1-b][1,3]oxazepine-7-carboxamide hydrochloride] | B (B=26-50% viability) | –
C=CCC1(CC=C)C[C@@H]2OCC[C@H](NC(=O)[C@H](C)NC)C(=O)N2[C@@H]1C(=O)NC(c1ccccc1)c1ccccc1 [Compound 50, (4S)-8,8-diallyl-N-benzhydryl-4-((S)-2-(methylamino)propanamido)-5-oxooctahydropyrrolo[2,1-b][1,3]oxazepine-7-carboxamide hydrochloride] | B (B=26-50% viability) | –
C=CCC1(CC=C)C[C@@H]2OCC[C@H](NC(=O)[C@H](C)NC)C(=O)N2[C@@H]1C(=O)NC(c1ccccc1)c1ccccc1 [Compound 51, (4S)-8,8-diallyl-N-benzhydryl-4-((S)-2-(methylamino)propanamido)-5-oxooctahydropyrrolo[2,1-b][1,3]oxazepine-7-carboxamide hydrochloride] | B (B=26-50% viability) | –
C=CCC1(CC=C)C[C@@H]2OCC[C@H](NC(=O)[C@H](C)NC)C(=O)N2[C@@H]1C(=O)NC(c1ccccc1)c1ccccc1 [Compound 52, (4S)-8,8-diallyl-N-benzhydryl-4-((S)-2-(methylamino)propanamido)-5-oxooctahydropyrrolo[2,1-b][1,3]oxazepine-7-carboxamide hydrochloride] | B (B=26-50% viability) | –
C=CCC1C[C@@H]2OCC[C@H](NC(=O)[C@H](C)NC)C(=O)N2[C@@H]1C(=O)NC(c1ccccc1)c1ccccc1 (stereo partly drawn) [Compound 53, (4S)-8,8-allyl-N-benzhydryl-4-((S)-2-(methylamino)propanamido)-5-oxooctahydropyrrolo[2,1-b][1,3]oxazepine-7-carboxamide hydrochloride] | – | 26 to 50
CN[C@@H](C)C(=O)N[C@H]1Cc2c([nH]c3ccccc23)[C@H]2CC(C)(C)[C@@H](C(=O)NC(c3ccccc3)c3ccccc3)N2C1=O [Compound 54, (6S)—N-benzhydryl-2,2-dimethyl-6-((S)-2-(methylamino)propanamido)-5-oxo-1,2,3,5,6,7,12,12b-octahydropyrrolo[1′,2′:1,2]azepino[3,4-b]indole-3-carboxamide hydrochloride] | – | > 50
CCC1(CC)C[C@@H]2OCC[C@H](NC(=O)[C@H](C)NC)C(=O)N2[C@@H]1C(=O)NC(c1ccccc1)c1ccccc1 [Compound 58, (4S)—N-benzhydryl-8,8-diethyl-4-((S)-2-(methylamino)propanamido)-5-oxooctahydropyrrolo[2,1-b][1,3]oxazepine-7-carboxamide hydrochloride] | B (B=26-50% viability) | –
CCC1(CC)C[C@@H]2OCC[C@H](NC(=O)[C@H](C)NC)C(=O)N2[C@@H]1C(=O)NC(c1ccccc1)c1ccccc1 [Compound 59, (4S)—N-benzhydryl-8,8-diethyl-4-((S)-2-(methylamino)propanamido)-5-oxooctahydropyrrolo[2,1-b][1,3]oxazepine-7-carboxamide hydrochloride] | A (A=0-25% viability) | –
CN[C@@H](C)C(=O)N[C@H]1CCO[C@H]2CC(C(C)C)(C(C)C)[C@@H](C(=O)NC(c3ccccc3)c3ccccc3)N2C1=O [Compound 60, (4S)—N-benzhydryl-8,8-diisopropyl-4-((S)-2-(methylamino)propanamido)-5-oxooctahydropyrrolo[2,1-b][1,3]oxazepine-7-carboxamide hydrochloride] | A (A=0-25% viability) | –
